Data published in patent US11192900B2, “Substituted 1,6-dihydropyridinones and 1,2-dihydroisoquinolinones as bet inhibitors” (NUVATION BIO INC., priority 2018, dated 2021).
Read-outs that look alike come from different tables or passages of the source.

Experiments:
BRDT-1 = BRDT-1 (Homo sapiens (Human), UniProt Q58F21); test: Bromodomain and Extraterminal Domain (BET) Binding Assay
Summary of the method: (§1)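 AlphaScreen displacement of biotinylated H4 (1-21) K5/8/12/16Ac peptide, in 50 mM HEPES pH 7.5, 100 mM NaCl, 1 mg/ml BSA, 0.05% CHAPS, 0.5% DMSO. Protein-compound preincubation 30 min RT, then ligand 30 min, donor then acceptor beads 60 min dark. Inhibition versus plate controls; IC50 from 10-point titrations.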

BRD2-2 = BRD2-2 (Homo sapiens (Human), UniProt P25440); test: as above
Summary of the method: as §1

BRD3-2 = BRD3-2 (Homo sapiens (Human), UniProt Q15059); test: as above
Summary of the method: as §1

BRD4-1 = BRD4-1 (Homo sapiens (Human), UniProt O60885); test: as above
Summary of the method: as §1

BRD3-1 = BRD3-1 (Homo sapiens (Human), UniProt Q15059); test: as above
Summary of the method: as §1

BRD2-1 = BRD2-1 (Homo sapiens (Human), UniProt P25440); test: as above
Summary of the method: as §1

BRD4-2 = BRD4-2 (Homo sapiens (Human), UniProt O60885); test: as above
Summary of the method: as §1

[1] = system: MV-4-11 human acute myeloid leukemia cell line; test: Second cell viability assay in MV-4-11 (Cell Titer-Glo); type: cell-based; conditions: Homo sapiens; MV4-11, Cell Titer-Glo, 72 hrs; read-out: Cell Viability IC50 in MV4-11 cells
Summary of the method: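 MV-4-11 cells seeded at 15000 per well, rested 1 h, then treated with 8 concentrations (e.g. 5 nM–10 µM) for 72 h at 37 °C, 5% CO2. Viability by Cell Titer-Glo luminescence; IC50 from sigmoidal variable-slope nonlinear regression.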

[2] = system: MDA-MB-231 human breast adenocarcinoma cell line; test: Cell viability assay (resazurin); type: cell-based; conditions: MDA-MB-231, resazurin, 96 hrs
Procedure: (§2) The effects of test compounds were also studied in the 22Rv1 human prostate carcinoma and MDA-MB-231 human breast adenocarcinoma cell lines. The cells were harvested during the logarithmic growth period and counted. Cells were seeded at a count of 3000 cells (22Rv1) or 5000 cells (MDA-MB-231) per well/100 μl in a 96-well plate. After seeding, cells were incubated at 37° C., 5% CO2 for 24 hr. Cells were treated with test compounds at 8 concentrations within a desired concentration range (e.g. 5 nM-10 μM) for generation of dose response curves by preparing serial dilutions of the test compound in DMSO which were further diluted with culture medium and then added to each well. The plate was further incubated for another 72 hrs (22Rv1) or 96 hrs (MDA-MB-231) in humidified incubator at 37° C. and 5% CO2. The assay was terminated by addition of resazurin (# R7017, Sigma). The plate was incubated for 4 hr at 37° C., 5% CO2 and fluorescence was measured using excitation and emission wavelengths of 535 and 590 nm, respectively. Cell viability data were plotted using GraphPad Prism (GraphPad Software, Inc., San Diego, Calif.). In addition, a nonlinear regression model with a sigmoidal dose response and variable slope within GraphPad Prism was used to calculate the IC50 value of individual test compounds.

[3] = system: 22Rv1 human prostate carcinoma cell line; test: Cell viability assay (resazurin); type: cell-based; conditions: 22Rv1, resazurin, 72 hrs
Procedure: as §2

[4] = system: IEC-6 rat intestinal epithelial cell line; test: IEC-6 cell viability, Protocol A (toxicity to non-cancerous cells); type: cell-based; conditions: IEC-6, 3000 cells per well, 96 hrs
Procedure: The effects of test compounds were also studied in the IEC-6 rat intestinal epithelial cell line to assess potential toxicity to non-cancerous cells. The cells were harvested during the logarithmic growth period and counted. In Protocol A, cells were seeded at a count of 3000 cells per well/100 μl in a 96-well plate. After seeding, cells were incubated at 37° C., 5% CO2 for 24 hr. Cells were treated with test compounds at 8 concentrations within a desired concentration range (e.g. 5 nM-10 μM) for generation of dose response curves by preparing serial dilutions of the test compound in DMSO which were further diluted with culture medium and then added to each well. The plate was further incubated for another 96 hrs in humidified incubator at 37° C. and 5% CO2. The assay was terminated by addition of resazurin (# R7017, Sigma). The plate was incubated for 4 hr at 37° C., 5% CO2 and fluorescence was measured using excitation and emission wavelengths of 535 and 590 nm, respectively. Cell viability data were plotted using GraphPad Prism (GraphPad Software, Inc., San Diego, Calif.). In addition, a nonlinear regression model with a sigmoidal dose response and variable slope within GraphPad Prism was used to calculate the IC50 value of individual test compounds. […]

Sequence of BRD2-1 (P25440 74-180): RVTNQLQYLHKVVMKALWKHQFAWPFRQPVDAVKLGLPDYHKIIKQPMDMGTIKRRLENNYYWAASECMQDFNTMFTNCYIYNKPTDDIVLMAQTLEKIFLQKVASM
Sequence of BRD3-2 (Q15059 306-415): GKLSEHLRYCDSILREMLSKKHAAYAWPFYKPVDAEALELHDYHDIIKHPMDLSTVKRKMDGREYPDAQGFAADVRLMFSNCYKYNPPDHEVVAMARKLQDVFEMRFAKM
Sequence of BRD2-2 (P25440 344-453): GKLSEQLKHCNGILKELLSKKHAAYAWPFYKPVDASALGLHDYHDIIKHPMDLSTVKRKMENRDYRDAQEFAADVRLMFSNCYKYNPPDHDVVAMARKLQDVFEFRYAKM
Sequence of BRD3-1 (Q15059 34-140): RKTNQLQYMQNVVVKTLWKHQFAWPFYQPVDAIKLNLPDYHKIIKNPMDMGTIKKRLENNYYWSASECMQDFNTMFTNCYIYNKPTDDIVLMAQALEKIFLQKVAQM

IC50 (BRDT-1): 31 nM
IC50 (BRD2-2): 12 nM
IC50 (BRD3-2): 29 nM
IC50 (BRD4-1; Table 2, read-out: BET IC50 BRD4-1): 24 nM
IC50 (BRD4-1; Table 3, read-out: BRD4-1 IC50): 24 nM
IC50 (BRD3-1): 35 nM
IC50 (BRD2-1): 16 nM
IC50 (BRD4-2; Table 2, read-out: BET IC50 BRD4-2): 21 nM
IC50 (BRD4-2; Table 3, read-out: BRD4-2 IC50): 21 nM
IC50 [1]: 28 nM
IC50 [2]: 82 nM
IC50 [3]: 58 nM
Compound: C=CS(=O)(=O)Nc1ccc(Oc2ccc(F)cc2F)c(-c2cc(NC)c(=O)n(C)c2)c1 [Compound 3, N-(4-(2,4-difluorophenoxy)-3-(1-methyl-5-(methylamino)-6-oxo-1,6-dihydropyridin-3-yl)phenyl)ethenesulfonamide]
IC50 [4]: 339 nM
